Reference: patent US10442803B2, “Tricyclic heterocycles as bet protein inhibitors” (Incyte Corporation, priority 2013, dated 2019)
Where a name gives a salt, the structure may show the parent alone.

Test system: KMS.12.BM cells
Assay: KMS.12.BM cell viability assay
Type: cell-based
Details: 72 h; KMS.12.BM human myeloma cells, 3 days, Cell Titer-GLO ATP quantitation; read-out: KMS cellular IC50
Summary of the method: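 IC50 derived from luminescent ATP quantitation (Cell Titer-GLO) of viable cells after 3-day compound treatment. KMS.12.BM human myeloma line seeded at 5000 cells/well in RPMI with 10% FBS.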

| SMILES | IC50 [nM] |
| --- | --- |
| Cc1nnc2ccc3c(cc(C(=O)N[C@H]4C[C@H](C#N)C4)n3Cc3ccccc3)n12 [Example 100, 6-benzyl-N-(trans-3-cyanocyclobutyl)-1-methyl-6H-pyrrolo[2,3-e][1,2,4]triazolo[4,3-a]pyridine-7-carboxamide] | 1000 to 10000 |
| Cc1nnc2ccc3c(cc(-c4ncco4)n3Cc3cc(Cl)cc(CN4CCC4)c3)n12 [Example 195, 6-[3-(Azetidin-1-ylmethyl)-5-chlorobenzyl]-1-methyl-7-(1,3-oxazol-2-yl)-6H-pyrrolo[2,3-e][1,2,4]triazolo[4,3-a]pyridine bis(trifluoroacetate) salt] | ≤ 1000 |
| CNC(=O)Nc1cc2c(cc(C)n2Cc2ccccc2)n2c(C)nnc12 [Example 229, 1-(6-Benzyl-1,7-dimethyl-6H-pyrrolo[2,3-e][1,2,4]triazolo[4,3-a]pyridin-4-yl)-3-methylurea] | ≤ 1000 |
| CNC(=O)c1cc2c(ccc3nnc(C)n32)n1Cc1ccccc1 [Example 82, 6-benzyl-N,1-dimethyl-6H-pyrrolo[2,3-e][1,2,4]triazolo[4,3-a]pyridine-7-carboxamide] | ≤ 1000 |
| Cc1nc2c(ccc3nnc(C)n32)n1Cc1ccccc1 [Example 55, 3-benzyl-2,8-dimethyl-3H-imidazo[4,5-e][1,2,4]triazolo[4,3-a]pyridine] | ≤ 1000 |
| Cc1ccccc1Cn1c(C)cc2c1ccc1nnc(C)n12 [Example 17, 1,7-dimethyl-6-(2-methylbenzyl)-6H-pyrrolo[2,3-e][1,2,4]triazolo[4,3-a]pyridine] | ≤ 1000 |
| Cc1ccc(Cn2c(C)cc3c2ccc2nnc(C)n23)cc1 [Example 19, 1,7-dimethyl-6-(4-methylbenzyl)-6H-pyrrolo[2,3-e][1,2,4]triazolo[4,3-a]pyridine] | ≤ 1000 |
| Cc1cc2c(cc(NCCO)c3nnc(C)n32)n1Cc1ccccc1 [Example 210, 2-[(6-Benzyl-1,7-dimethyl-6H-pyrrolo[2,3-e][1,2,4]triazolo[4,3-a]pyridin-4-yl)amino]ethanol] | 1000 to 10000 |
| COC(=O)Nc1cc2c(cc(C)n2Cc2ccccc2)n2c(C)nnc12 [Example 272, Methyl 6-benzyl-1,7-dimethyl-6H-pyrrolo[2,3-e][1,2,4]triazolo[4,3-a]pyridin-4-ylcarbamate] | ≤ 1000 |
| Cc1cc2c(cc(Nc3ccccn3)c3nnc(C)n32)n1Cc1ccccc1 [Example 240, 6-benzyl-1,7-Dimethyl-N-(pyridin-2-yl)-6H-pyrrolo[2,3-e][1,2,4]triazolo[4,3-a]pyridin-4-amine] | 1000 to 10000 |
| CC(=O)N1CC(CC#N)(n2ccc(-c3cc4c(ccc5nnc(C)n54)n3Cc3ccccc3)n2)C1 [Example 91, {1-acetyl-3-[3-(6-benzyl-1-methyl-66H-pyrrolo[2,3-e][1,2,4]triazolo[4,3-a]pyridin-7-yl)-1H-pyrazol-1-yl]azetidin-3-yl}acetonitrile] | ≤ 1000 |
| CCN1CC(CC#N)(n2ccc(-c3cc4c(ccc5nnc(C)n54)n3Cc3cccc(Cl)c3)n2)C1 [Example 158, (3-{3-[6-(3-Chlorobenzyl)-1-methyl-6H-pyrrolo[2,3-e][1,2,4]triazolo[4,3-a]pyridin-7-yl]-1H-pyrazol-1-yl}-1-ethylazetidin-3-yl)acetonitrile bis(trifluoroacetate) salt] | ≤ 1000 |
| CN[C@H]1CC[C@@H](Nc2cc3c(cc(C)n3Cc3ccccc3)n3c(C)nnc23)CC1 [Example 221, cis-N-(6-Benzyl-1,7-dimethyl-6H-pyrrolo[2,3-e][1,2,4]triazolo[4,3-a]pyridin-4-yl)-N′-methylcyclohexane-1,4-diamine] | 1000 to 10000 |
| Cc1nnc2ccc3c(cc(-c4ccn(CCC(N)=O)n4)n3Cc3cccc(Cl)c3)n12 [Example 159, 3-{3-[6-(3-Chlorobenzyl)-1-methyl-6H-pyrrolo[2,3-e][1,2,4]triazolo[4,3-a]pyridin-7-yl]-1H-pyrazol-1-yl}propanamide trifluoroacetate salt] | ≤ 1000 |
| COc1ccc(Cn2c(C)cc3c2ccc2nnc(C)n23)cc1 [Example 34, 6-(4-methoxybenzyl)-1,7-dimethyl-6H-pyrrolo[2,3-e][1,2,4]triazolo[4,3-a]pyridine] | ≤ 1000 |
| CNC(=O)CCn1ccc(-c2cc3c(ccc4nnc(C)n43)n2Cc2ccccc2)n1 [Example 97, 3-[3-(6-benzyl-1-methyl-6H-pyrrolo[2,3-e][1,2,4]triazolo[4,3-a]pyridin-7-yl)-1H-pyrazol-1-yl]-N-methylpropanamide] | ≤ 1000 |
| CC(=O)Nc1cc2c(cc(C)n2Cc2ccccc2)n2c(C)nnc12 [Example 266, N-(6-Benzyl-1,7-dimethyl-6H-pyrrolo[2,3-e][1,2,4]triazolo[4,3-a]pyridin-4-yl)acetamide] | ≤ 1000 |
| Cc1cc2c(cc(NCC3CCC3)c3nnc(C)n32)n1Cc1ccccc1 [Example 241, 6-Benzyl-N-(cyclobutylmethyl)-1,7-dimethyl-6H-pyrrolo[2,3-e][1,2,4]triazolo[4,3-a]pyridin-4-amine] | 1000 to 10000 |

| SMILES | IC50 [nM] |
| --- | --- |
| CCN1CCC(Nc2cc3c(cc(C)n3Cc3ccccc3)n3c(C)nnc23)CC1 [Example 212, 6-Benzyl-N-(1-ethylpiperidin-4-yl)-1,7-dimethyl-6H-pyrrolo[2,3-e][1,2,4]triazolo[4,3-a]pyridin-4-amine] | ≤ 1000 |
| CCNC(=O)CCn1ccc(-c2cc3c(ccc4nnc(C)n43)n2Cc2cccc(Cl)c2)n1 [Example 175, 3-{3-[6-(3-Chlorobenzyl)-1-methyl-6H-pyrrolo[2,3-e][1,2,4]triazolo[4,3-a]pyridin-7-yl]-1H-pyrazol-1-yl}-N-ethylpropanamide trifluoroacetate salt] | ≤ 1000 |
| Cc1cc2c(ccc3nnc(C)n32)n1Cc1cccc(CO)c1 [Example 26, {3-[(1,7-dimethyl-6H-pyrrolo[2,3-e][1,2,4]triazolo[4,3-a]pyridin-6-yl)methyl]phenyl}methanol trifluoroacetate salt] | ≤ 1000 |
| Cc1cc2c(ccc3nnc(C)n32)n1Cc1ccccc1Cl [Example 8, 6-(2-chlorobenzyl)-1,7-dimethyl-6H-pyrrolo[2,3-e][1,2,4]triazolo[4,3-a]pyridine] | ≤ 1000 |
| Cc1nnc2ccc3c(cc(-c4ccn(CCC(=O)N(C)C)n4)n3Cc3ccccc3)n12 [Example 95, 3-[3-(6-benzyl-1-methyl-6H-pyrrolo[2,3-e][1,2,4]triazolo[4,3-a]pyridin-7-yl)-1H-pyrazol-1-yl]-N,N-dimethylpropanamide] | ≤ 1000 |
| Cc1cc2c(cc(NC3CCN(C(=O)OC(C)(C)C)CC3)c3nnc(C)n32)n1Cc1ccccc1 [Example 214, tert-Butyl 4-[(6-benzyl-1,7-dimethyl-6H-pyrrolo[2,3-e][1,2,4]triazolo[4,3-a]pyridin-4-yl)amino]piperidine-1-carboxylate] | 1000 to 10000 |
| CCOC(=O)N1CC(n2ccc(-c3cc4c(ccc5nnc(C)n54)n3Cc3cccc(Cl)c3)n2)C1 [Example 167, Ethyl 3-{3-[6-(3-chlorobenzyl)-1-methyl-6H-pyrrolo[2,3-e][1,2,4]triazolo[4,3-a]pyridin-7-yl]-1H-pyrazol-1-yl}azetidine-1-carboxylate trifluoroacetate salt] | ≤ 1000 |
| Cc1cc2c(ccc3nnc(C)n32)n1Cc1ccccn1 [Example 7, 1,7-dimethyl-6-(pyridin-2-ylmethyl)-6H-pyrrolo[2,3-e][1,2,4]triazolo[4,3-a]pyridine] | 1000 to 10000 |
| CCn1ccc(-c2cc3c(ccc4nnc(C)n43)n2Cc2cc(Cl)cc(CN3CCC3)c2)n1 [Example 188, 6-(3-(Azetidin-1-ylmethyl)-5-chlorobenzyl)-7-(1-ethyl-1H-pyrazol-3-yl)-1-methyl-6H-pyrrolo[2,3-e][1,2,4]triazolo[4,3-a]pyridine tris(trifluoroacetate) salt] | ≤ 1000 |
| Cc1nnc2ccc3c(cc(-c4ncco4)n3Cc3cc(Cl)cc(CN4CCC(O)C4)c3)n12 (racemic) [Example 199, 1-(3-Chloro-5-{[1-methyl-7-(1,3-oxazol-2-yl)-6H-pyrrolo[2,3-e][1,2,4]triazolo[4,3-a]pyridin-6-yl]methyl}benzyl)pyrrolidin-3-ol bis(trifluoroacetate) salt (racemic)] | ≤ 1000 |
| Cc1nnc2ccc3c(cc(-c4cn(C)cn4)n3Cc3ccccc3)n12 [Example 70, 6-benzyl-1-methyl-7-(1-methyl-1H-imidazol-4-yl)-6H-pyrrolo[2,3-e][1,2,4]triazolo[4,3-a]pyridine] | ≤ 1000 |
| Cc1cc2c(ccc3nnc(C)n32)n1Cc1ccc(O)cc1 [Example 35, 4-[(1,7-dimethyl-6H-pyrrolo[2,3-e][1,2,4]triazolo[4,3-a]pyridin-6-yl)methyl]phenol] | ≤ 1000 |
| Cc1cc2c(ccc3nnc(C)n32)n1Cc1cccc(CN(C)C)c1 [Example 40, 1-{3-[(1,7-dimethyl-6H-pyrrolo[2,3-e][1,2,4]triazolo[4,3-a]pyridin-6-yl)methyl]phenyl}-N,N-dimethylmethanamine] | ≤ 1000 |
| Cc1nnc2ccc3c(cc(-c4ccn(CCO)n4)n3Cc3cccc(Cl)c3)n12 [Example 178, 2-{3-[6-(3-Chlorobenzyl)-1-methyl-6H-pyrrolo[2,3-e][1,2,4]triazolo[4,3-a]pyridin-7-yl]-1H-pyrazol-1-yl}ethanol trifluoroacetate salt] | ≤ 1000 |
| Cc1nnc2ccc3c(cc(-c4ccn(CCN(C)C)n4)n3Cc3ccccc3)n12 [Example 89, 2-[3-(6-benzyl-1-methyl-6H-pyrrolo[2,3-e][1,2,4]triazolo[4,3-a]pyridin-7-yl)-1H-pyrazol-1-yl]-N,N-dimethylethanamine] | ≤ 1000 |
| Cc1nnc2ccc3c(ccn3Cc3ccccc3)n12 [Example 1, 6-benzyl-1-methyl-6H-pyrrolo[2,3-e][1,2,4]triazolo[4,3-a]pyridine] | 1000 to 10000 |
| Cc1cc2c(ccc3nnc(C)n32)n1Cc1cccc(C(=O)NO)c1 [Example 31, 3-[(1,7-dimethyl-6H-pyrrolo[2,3-e][1,2,4]triazolo[4,3-a]pyridin-6-yl)methyl]-N-hydroxybenzamide trifluoroacetate salt] | 1000 to 10000 |
